From US20060051739A1, “Methods and composition for visualizing and interfering with chromosomal tethering of extrachromosomal molecules” (Salk Institute for Biological Studies, priority 2000, published 2006)

Tested on: COLO320DM cells with lacO/lacR-GFP labelled DMs
Assay: Microtubule inhibitor treatment of cells with lacO/lacR-GFP labelled DMs, immunofluorescence microscopy
Format: cell-based, human
Conditions: for appearance of microtubules (immunofluorescence): taxol 10 μM or vinblastine 10 μg/ml for 3 hours prior to harvesting, anti α-tubulin staining; for chromosome organization / association of DMs with chromosomes / peripheral localization of DMs on mitotic chromosomes: taxol 10 μM or vinblastine 10 μg/ml for 3 hours; for chromosome organization: DAPI counterstain; for association of DMs with chromosomes / peripheral localization of DMs on mitotic chromosomes: DMs visualized by lacR-GFP
Text: Visualizing DM-integrated and free EBV vectors by in vivo lacR-GFP staining: One of the established cell lines, containing DMs tagged with lacO repeat, was infected with lacR-GFP retrovirus. The infected cells were subcloned by limited dilution to obtain sublines in which DMs are more uniformly labelled with lacR-GFP. For time lapse imaging, the same cell line was infected with H2B-CFP and lacR-YFP viruses simultaneously, and the double-labelled cells were subcloned by limited dilution.
Immunofluorescence staining: Cells were harvested by gentle pipetting, attached to slide glasses by cytospin (500 rpm, 1 minute, Shandon, Pittsburgh, Pa.), and fixed with 3.7% formaldehyde for 10 minutes. When indicated, cells were treated with either taxol (10 μM paclitaxel, Sigma Chemical Co., St. Louis, Mo.) or vinblastine (10 μg/ml, Sigma) for 3 hours prior to harvesting them in order to disrupt microtubules. Slides were washed with PBS three times, and treated with blocking buffer (2.5% BSA, 0.2M glycine, 0.1% TritonX-100) for 30 minutes.
Primary and secondary antibodies were diluted in the blocking buffer. Primary antibodies were rabbit anti EBNA-1 serum K67-3 (1:1000, kindly provided by Dr. Jaap Middeldorp, Free University Hospital, Amsterdam, the Netherlands), human CREST autoantiserum hACA-M (for detecting centromeres, 1:2000 dilution) (Sullivan et al., 1994), and monoclonal anti α-tubulin (for detecting microtubules, 1:2000 dilution, Sigma). Following incubation for 60 minutes at room temperature, glass slides were washed three times with PBS. Secondary antibodies were Texas-Red conjugated anti-rabbit IgG (1:500, Jackson ImmunoResearch, West Grove, Pa.), Cy5 conjugated goat anti-human IgG (1:1000, Amersham, Piscataway, N.J.), and rhodamine conjugated anti mouse IgG (1:1000, Boehringer Mannheim), respectively. Following incubation for 60 minutes at room temperature, slides were washed three times with PBS, and chromosomes were counterstained with DAPI (1 μg/ml). Fluorescence of lacR-GFP was preserved well by this protocol.
Microscopy: All images appearing in the Figures were collected using a DeltaVision microscope system (Applied Precision Inc. Issaquah, Wash.) with either a 63×/NA 1.4 or a 100×/NA 1.35 oil immersion objective. For fixed specimens (except for the images of FIG. 2), three-dimensional data sets were collected to visualize EBV vectors and DMs as they distributed in multiple focal planes. Optical sections were collected at 0.2-μm focal intervals; pixel size was 0.111 μm for 63× objective and 0.0669 μm for 100× objective. Out-of-focus contamination was removed from each optical section via deconvolution processing and two-dimensional images were created by projecting the three-dimensional data stacks using the software supplied with the DeltaVision system.
The ability to readily visualize DMs without using FISH protocol has enabled the investigation of the mechanisms that contribute to their behavior during mitosis. The possibility that DMs are held away from the spindle poles by the microtubule-mediated antipolar force, to which normal chromosome arms are also known to be subjected (Fuller, 1995; Rieder et al., 1986) was examined. DM-labelled cells were treated with either a microtubule stabilizer (taxol) or destabilizer (vinblastine). DMs and microtubules were visualized by lacR-GFP and immunofluorescence staining, respectively.

## CC(=O)O[C@H]1C(=O)[C@@]2(C)[C@H]([C@H](OC(=O)c3ccccc3)[C@]3(O)C[C@H](OC(=O)[C@H](O)[C@@H](NC(=O)c4ccccc4)c4ccccc4)C(C)=C1C3(C)C)[C@]1(OC(C)=O)CO[C@@H]1C[C@@H]2O [taxol, paclitaxel]
  appearance of microtubules (immunofluorescence): multiple aster-like structures
  chromosome organization: completely disrupted
  association of DMs with chromosomes: still associated closely with chromosomes
  peripheral localization of DMs on mitotic chromosomes: no longer attached to the periphery of clustered chromosomes

## CC[C@]1(O)C[C@@H]2CN(CCc3c([nH]c4ccccc34)[C@@](C(=O)OC)(c3cc4c(cc3OC)N(C)[C@H]3[C@@](O)(C(=O)OC)[C@H](OC(C)=O)[C@]5(CC)C=CCN6CC[C@]43[C@@H]65)C2)C1 [vinblastine]
  appearance of microtubules (immunofluorescence): rod-like microtubules
  chromosome organization: completely disrupted
  association of DMs with chromosomes: still associated closely with chromosomes
  peripheral localization of DMs on mitotic chromosomes: no longer attached to the periphery of clustered chromosomes
